Laboratory results published in ChEMBL document CHEMBL3832761, “MMV Pathogen Box Bioactivity Data” (2017).
Values after ≈ are worked out from the molar mass of the structure shown.

Assays:
Assay type in all cases: functional
[1] = tested on: Mycobacterium tuberculosis; experiment: AntiMycobacterium tuberculosis activity 1-week GAST/Fe MIC (uM); conditions: 168 h
[2] = tested on: Mycobacterium tuberculosis; experiment: AntiMycobacterium tuberculosis activity 2-week 7H9/ADC/Tw MIC (uM); conditions: 336 h
[3] = tested on: Mycobacterium tuberculosis; experiment: AntiMycobacterium tuberculosis activity 2-week 7H9/DPPC/cholesterol/BSA/Tx MIC (uM); conditions: 336 h
[4] = tested on: Mycobacterium tuberculosis; experiment: AntiMycobacterium tuberculosis activity 1-week 7H9/ADC/Tw MIC (uM); conditions: 168 h
[5] = tested on: Mycobacterium tuberculosis; experiment: AntiMycobacterium tuberculosis activity day 21 MIC99 in 7H9/2.5mM butyrate/pH6/0.1mM nitrite MIC99 (uM); conditions: 504 h
[6] = tested on: Mycobacterium tuberculosis; experiment: AntiMycobacterium tuberculosis activity 1-week 7H9/DPPC/cholesterol/BSA/Tx MIC (uM); conditions: 168 h
[7] = tested on: Mycobacterium tuberculosis; experiment: AntiMycobacterium tuberculosis activity 1-week 7H9/cholesterol/BSA/Tx MIC (uM); conditions: 168 h
[8] = tested on: Mycobacterium tuberculosis; experiment: (§1) AntiMycobacterium tuberculosis activity day 10 in 7H9/2.5mM butyrate/pH6/0.1mM nitrite MIC90 (uM); conditions: 240 h
[9] = tested on: Mycobacterium tuberculosis; experiment: AntiMycobacterium tuberculosis activity Non-Replicating form: Average MIC90 (uM)
[10] = tested on: Mycobacterium tuberculosis; experiment: AntiMycobacterium tuberculosis activity 2-week Alamar Blue 7H9/cholesterol/BSA/Tx MIC (uM); conditions: 336 h
[11] = tested on: Mycobacterium tuberculosis; experiment: AntiMycobacterium tuberculosis activity day 21 in 7H9/2.5mM butyrate/pH6/0.1mM nitrite MIC90 (uM); conditions: 504 h
HepG2 = experiment: HepG2 CC50 (uM) Cytotoxicity; conditions: Homo sapiens
[12] = tested on: Mycobacterium tuberculosis; experiment: AntiMycobacterium tuberculosis activity 2-week Alamar Blue 7H9/ADC/Tw MIC (uM); conditions: 336 h
[13] = tested on: Mycobacterium tuberculosis; experiment: AntiMycobacterium tuberculosis activity 2-week GAST/Fe MIC (uM); conditions: 336 h
[14] = tested on: Mycobacterium tuberculosis; experiment: AntiMycobacterium tuberculosis activity Replicating form: Average MIC90 (uM)
[15] = tested on: Mycobacterium tuberculosis; experiment: as §1; conditions: 240 h; remark: listed apart in the source
[16] = tested on: Mycobacterium tuberculosis; experiment: AntiMycobacterium tuberculosis activity 1-week 7H9/glucose/BSA/Tx MIC (uM); conditions: 168 h
[17] = tested on: Mycobacterium tuberculosis; experiment: AntiMycobacterium tuberculosis activity 2-week 7H9/glucose/BSA/Tx MIC (uM); conditions: 336 h

| SMILES | MIC [1] | MIC [2] | MIC [3] | MIC [4] | MIC [5] | MIC [6] | MIC [7] | MIC90 [8] | MIC90 [9] | MIC [10] | MIC90 [11] | CC50 (HepG2) | MIC [12] | MIC [13] | MIC90 [14] | MIC90 [15] | MIC [16] | MIC [17] |
| --- | --- | --- | --- | --- | --- | --- | --- | --- | --- | --- | --- | --- | --- | --- | --- | --- | --- | --- |
| O=C(c1[nH]nc2c1CCCC2)N1CCN(Cc2ccc3c(c2)OCO3)CC1 | 0.39 µM (≈ 0.144 µg/mL) | > 50 µM | 19 µM (≈ 7 µg/mL) | > 50 µM | > 50 µM | 4.7 µM (≈ 1.73 µg/mL) | 0.78 µM (≈ 0.287 µg/mL) | 1.5 µM (≈ 0.553 µg/mL) | > 15.5 µM | 1.56 µM (≈ 0.575 µg/mL) | 6.25 µM (≈ 2.3 µg/mL) | > 100 µM | 4.7 µM (≈ 1.73 µg/mL) | 0.78 µM (≈ 0.287 µg/mL) | > 100 µM | > 50 µM | 37 µM (≈ 13.6 µg/mL) | > 50 µM |
| O=C(NC1CCCCC1)N1CCN(Cc2ccc3c(c2)OCO3)CC1 | 0.78 µM (≈ 0.269 µg/mL) | > 50 µM | 50 µM (≈ 17.3 µg/mL) | > 50 µM | 50 µM (≈ 17.3 µg/mL) | 9.4 µM (≈ 3.25 µg/mL) | 6.25 µM (≈ 2.16 µg/mL) | > 50 µM | > 100 µM | 12.5 µM (≈ 4.32 µg/mL) | 50 µM (≈ 17.3 µg/mL) | > 100 µM | 12.5 µM (≈ 4.32 µg/mL) | 1.2 µM (≈ 0.415 µg/mL) | > 100 µM | > 50 µM | > 50 µM | > 50 µM |
| CC(C)=CCC/C(C)=C\CNCCNC1C2CC3CC(C2)CC1C3 (centres undefined) | 0.39 µM (≈ 0.129 µg/mL) | 1.2 µM (≈ 0.397 µg/mL) | 0.6 µM (≈ 0.198 µg/mL) | 0.78 µM (≈ 0.258 µg/mL) | > 50 µM | 0.39 µM (≈ 0.129 µg/mL) | 0.39 µM (≈ 0.129 µg/mL) | > 50 µM | 5.3 µM (≈ 1.75 µg/mL) | 0.78 µM (≈ 0.258 µg/mL) | > 50 µM | 7.1 µM | 1.2 µM (≈ 0.397 µg/mL) | 0.78 µM (≈ 0.258 µg/mL) | 1.24 µM (≈ 0.41 µg/mL) | > 50 µM | 0.6 µM (≈ 0.198 µg/mL) | 1.2 µM (≈ 0.397 µg/mL) |
| Nc1nc2cc(-c3cncc(Oc4ccc(F)cc4)c3)ccc2[nH]1 | 6.25 µM (≈ 2 µg/mL) | 19 µM (≈ 6.09 µg/mL) | 19 µM (≈ 6.09 µg/mL) | 19 µM (≈ 6.09 µg/mL) | 25 µM (≈ 8.01 µg/mL) | 12.5 µM (≈ 4 µg/mL) | 12.5 µM (≈ 4 µg/mL) | 6.25 µM (≈ 2 µg/mL) | 41.2 µM (≈ 13.2 µg/mL) | 12.5 µM (≈ 4 µg/mL) | 6.25 µM (≈ 2 µg/mL) | 31.5 µM | 19 µM (≈ 6.09 µg/mL) | 6.25 µM (≈ 2 µg/mL) | 9.89 µM (≈ 3.17 µg/mL) | 25 µM (≈ 8.01 µg/mL) | 19 µM (≈ 6.09 µg/mL) | 25 µM (≈ 8.01 µg/mL) |
| Cc1cc(NCCc2ccccc2)nc(NC(=N)Nc2ccc(Cl)cc2)n1 | 0.78 µM (≈ 0.297 µg/mL) | 1.56 µM (≈ 0.594 µg/mL) | 0.78 µM (≈ 0.297 µg/mL) | 1.2 µM (≈ 0.457 µg/mL) | 3.12 µM (≈ 1.19 µg/mL) | 0.6 µM (≈ 0.229 µg/mL) | 0.6 µM (≈ 0.229 µg/mL) | 3.12 µM (≈ 1.19 µg/mL) | 2.77 µM (≈ 1.06 µg/mL) | 0.78 µM (≈ 0.297 µg/mL) | 3.12 µM (≈ 1.19 µg/mL) | 6.5 µM | 2.3 µM (≈ 0.876 µg/mL) | 0.78 µM (≈ 0.297 µg/mL) | 1.15 µM (≈ 0.438 µg/mL) | 6.25 µM (≈ 2.38 µg/mL) | 1.2 µM (≈ 0.457 µg/mL) | 1.2 µM (≈ 0.457 µg/mL) |
| NC(=O)c1cc(Br)ccc1OCCOc1ccccc1 | 6.25 µM (≈ 2.1 µg/mL) | > 50 µM | > 50 µM | > 50 µM | > 50 µM | > 50 µM | 50 µM (≈ 16.8 µg/mL) | 50 µM (≈ 16.8 µg/mL) | > 100 µM | > 50 µM | > 50 µM | > 100 µM | > 50 µM | 37 µM (≈ 12.4 µg/mL) | > 100 µM | > 50 µM | > 50 µM | > 50 µM |
| Cc1cccc(-c2nc(Nc3ccncn3)c3sccc3n2)n1 | 6.25 µM (≈ 2 µg/mL) | 9.4 µM (≈ 3.01 µg/mL) | > 50 µM | 4.7 µM (≈ 1.51 µg/mL) | 6.25 µM (≈ 2 µg/mL) | 37 µM (≈ 11.9 µg/mL) | 37 µM (≈ 11.9 µg/mL) | 3.12 µM (≈ 1 µg/mL) | 0.09 µM (≈ 0.0288 µg/mL) | 6.25 µM (≈ 2 µg/mL) | 6.25 µM (≈ 2 µg/mL) | 14.3 µM | 9.4 µM (≈ 3.01 µg/mL) | 12.5 µM (≈ 4 µg/mL) | 2.5 µM (≈ 0.801 µg/mL) | 6.25 µM (≈ 2 µg/mL) | ≥ 50 µM | > 50 µM |
| Nc1ncnc2c1ncn2[C@@H]1O[C@H](COS(=O)(=O)NC(=O)c2ccccc2O)[C@@H](O)[C@H]1O | 0.3 µM (≈ 0.14 µg/mL) | > 50 µM | > 50 µM | > 50 µM | > 50 µM | > 50 µM | > 50 µM | > 50 µM | > 100 µM | > 50 µM | > 50 µM | > 100 µM | 9.4 µM (≈ 4.38 µg/mL) | 0.6 µM (≈ 0.28 µg/mL) | > 100 µM | > 50 µM | > 50 µM | > 50 µM |
